Experimental data reported in patent US20260137081A1, “SUBSTITUTED FURANONES AND USE THEREOF FOR AGRICULTURAL APPLICATIONS” (SOUND AGRICULTURE COMPANY, priority 2021, published 2026).

What was measured:
Format in all cases: in vivo
[1] = test system: corn; assay: Corn field trials, grain yield; details: field trials in Illinois and Iowa; applied once in late June; vs untreated control
Description: The total amount of Compound 1 applied to each plot ranged from about 5 g/acre to about 20 g/acre.
Corn field trials were performed in Illinois and Iowa. In each trial, individual plots measured 10 feet by 30 feet and each treatment (application of Compound 1 or untreated control) was replicated across 4 plots in a randomized complete block design. Agronomic practices were maintained under standard commercial conditions and products used for weed, insect, and disease control. The Walnut, Illinois trial site was planted in mid-May and harvested in early October. The Richland, Iowa site was planted in late April and harvested in late September. Compound 1 was applied to both sites once in late June. Grain weight and grain moisture were measured for each plot at harvest, data is reported as bushels per acre normalized to 13% moisture content.

[2] = test system: corn plants; assay: Greenhouse foliar application, gas exchange with LI-COR 6800 (carbon assimilation, transpiration, stomatal conductance); details: 0.8 fl. oz rate; 2 and 24 hour time points; compared to the mock
Description: Greenhouse application of Compound 1: Corn plants were grown in a greenhouse for 9 weeks (V5) prior to treatment. Eight plants were treated with a mock solution (formulation blank), low rate (0.8 fl. oz) or medium rate (1.7 fl. oz). The low rate and medium rate refer to the volume of the Compound 1 containing solution that is applied to 1 acre of corn plants, and roughly equates to 5 grams of Compound 1 per acre for low rate and about 10 grams of Compound 1 per acre for medium rate. The foliar blends were prepared by mixing the formula concentrations into water followed by vigorous mixing. To mimic a foliar application in a corn field (using a spray boom), a uniform coating of the entire plant was carried out (FIG. 2) using a hand-held spray bottle. Following application, the plants were separated to avoid cross contamination (aerosol drift) and allowed to dry. Measurement of carbon assimilation: Assessment of the effects of Compound 1 on photosynthesis in corn plants, tobacco plants, and soybean plants was performed using a LI-COR 6800 fluorimeter, which measured net carbon assimilation (Anet), transpiration (E) and stomatal conductance (gsw). The youngest fully expanded leaf with a fully formed ligule was used from each plant for sampling. A single sample (biological representative) consisted of averaging the readings from three technical representatives adjacent to each other on each sampled leaf. Each treatment consisted of eight biological representatives (N=8). Photobiology measurements were taken at 2 and 24 hour time points, post application.

[3] = test system: corn plants; assay: Chlorophyll fluorescence with LI-COR 6800 after foliar application; details: for minimal fluorescence Fo / maximum fluorescence (Fm): dark-adapted; for light-adapted quantum efficiency of PSII (Fv′/Fm′): in comparison to the mock
Description: Greenhouse application of Compound 1: Corn plants were grown in a greenhouse for 9 weeks (V5) prior to treatment. […] The foliar blends were prepared by mixing the formula concentrations into water followed by vigorous mixing. To mimic a foliar application in a corn field (using a spray boom), a uniform coating of the entire plant was carried out (FIG. 2) using a hand-held spray bottle. Following application, the plants were separated to avoid cross contamination (aerosol drift) and allowed to dry. Measurement of chlorophyll fluorescence: Chlorophyll fluorescence measurements were determined 4 hrs and 24 hrs after treatment using a LI-COR 6800 fluorimeter (LI-COR Biosciences; Lincoln, Nebraska). Corn plants were dark-adapted 60-90 min prior to measurement and the youngest fully expanded leaf with a fully formed ligule was used for the measurement. Minimal fluorescence levels in the dark (Fo) and light (Fo′) were recorded by applying a measuring light of 12 μmol photons m^−2 s^−1. Maximum fluorescence levels in the dark (Fm) and light (Fm′) were recorded by applying a saturating pulse of light at 10,000 μmol photons m^−2 s^−1. Maximum quantum efficiency of PSII in the dark (Fv/Fm) and light (Fv′/Fm′) were calculated as (Fm−Fo/Fm) using their respective dark or light-adapted values. NPQ induction was measured after a 5 minute exposure to an actinic light source at 1,000 μmol photons m^−2 s^−1 and calculated as (Fm−Fm′/Fm′).

[4] = test system: Corn (Syngenta Agrisure Artesian); assay: Cool Grow Procedure Two (foliar spray of DC formulation vs formulation blank)
Description: Corn (Syngenta Agrisure Artesian, Basel, Switzerland) seeds (n=2) were planted in 24 four inch pots containing Sunshine soil #1 (Sun Gro, Agawam, MA) mixed with ⅛ tbsp of 14-14-14 osmocote N—P—K (Bloomington Brands LLC, Bloomington, IN) slow-release fertilizer and Micromax (ICL Specialty Fertilizers) (lg/L). Pots were placed on plant holder trays (11×22 in) with three pots per tray and were set-up in a 4×4 ft Cool Grow tent (capacity: 35 one liter pots) with temperature set at 24° C. and light at 345 μmoL for 12 hours day and night. Upon emergence, one seedling was culled leaving only one plant per pot. Plants were fertilized weekly thereafter starting one week after germination with 20-20-20 NPK (1 tsp/gallon) (Bloomington Brands LLC, Bloomington, IN) applied at ˜800-1000 mL per tray.
At V2-3 stage (14 days after seeding), each plant was sprayed with 7.5 mL of the following formulations: formulation blank DC (12 plants total; Agnique® AMD 3L (N,N-dimethyl lactamide)); Compound 1 DC formulation (9.86 μL of DC formulation from Example 5 dissolved in 50 mL of water). After 90 minutes following spray treatment, photosynthetic measurements were made using Licor. Digital biomass and NDVI measurements were made 21 days after seeding by a PlantEye F600Multispectral 3D scanner (Phenospex, Netherlands) and plants were harvested at 27 days after seeding.

## COC1=C(OC)[C@@H]([C@@H]2COC(C)(C)O2)OC1=O [Compound 1, (5R)-5-(2,2-dimethyl-1,3-dioxolan-4-yl)-3,4-dimethoxyfuran-2(5H)-one]
[1]
  Corn yield: Increases
[2]
  CO2 assimilation (Anet): elevated
  stomatal conductance (gsw): elevated
  transpiration (E): elevated
[3]; 24 hrs post application
  light-adapted Fm′: not higher
[3]; both rates, after 24 hrs
  dark-adapted quantum efficiency of PSII (Fv/Fm): higher
[3]; high rate, 4 hrs post foliar application, vs low rate and mock control
  minimal fluorescence Fo: lower
[3]; high rate, both timepoints (4 and 24 hrs)
  maximum fluorescence (Fm): higher
[3]; low and high rates, after 24 hrs, vs mock control
  minimal fluorescence Fo: lower compared to the mock control
[3]; low rate, after 24 hrs
  maximum fluorescence (Fm): higher
[3]; high rate, 4 hrs post application
  light-adapted quantum efficiency of PSII (Fv′/Fm′): higher
[3]; high rate, after 4 hrs
  dark-adapted quantum efficiency of PSII (Fv/Fm): higher
[3]; low rate, 24 hrs post application
  light-adapted quantum efficiency of PSII (Fv′/Fm′): higher
[3]; the two rates, 4 hrs post application
  light-adapted Fm′: similarly higher
[4]; 21 days after seeding, formulation blank DC 0.558, p<0.05
  NDVI: 0.569
[4]; harvest 27 days after seeding, formulation blank DC 3.16, p<0.1
  mean shoot dry weight: 3.62 g
